Laboratory results: PMC8175309, “Translational CNS Steady-State Drug Disposition Model in Rats, Monkeys, and Humans for Quantitative Prediction of Brain-to-Plasma and Cerebrospinal Fluid-to-Plasma Unbound Concentration Ratios” (The AAPS Journal, 2021)
Read-outs that look alike come from different tables or passages of the source.

Legend:
[1] = Observed Kp,uu,brain and Kp,uu,CSF in monkeys; settings: for Kp uu at 6 h: cynomolgus monkey, in vivo
Method: Monkey experiments were conducted internally or at the Drug Safety Research Laboratories in Shin Nippon Biomedical Laboratories via consignment to Axcelead Drug Discovery Partners. […] Detailed dosage regimen for each compound is summarized in Supplemental Table 3. […] Each cassette was assigned to a separate group of monkeys. The vehicle was saline or a mixture of dimethylacetamide and 1,3-butanediol (1:1, v/v). At the end of the 6-h infusion or 1 h after intravenous bolus administration, the monkeys were anesthetized, and whole blood, CSF, and whole brain were collected. Blood was collected using the anticoagulant, heparin sodium, and immediately centrifuged; the plasma was transferred to polypropylene tubes. Then, ketamine hydrochloride (50 mg/mL; 0.2 mL/kg; 10 mg/kg) was intramuscularly administered. CSF was collected after lumbar puncture using a spinal needle (22–25G) and a syringe pre-wetted with 10% CHAPS solution to prevent adsorption of compounds to all the equipment during pretreatment. CSF samples were immediately centrifuged, and the supernatant layers were transferred to polypropylene tubes. […] After collecting the cerebellum, hippocampus, and cerebral cortex from the whole brain, these were washed with cold saline, weighed, and homogenized immediately in 4 volumes of ice-cold 100 mmol/L sodium phosphate buffer. All samples were stored at –80°C until analysis by LC-MS/MS. Each sample (50 μL) was mixed with the working solution (the mixture of dimethyl sulfoxide and acetonitrile (2:8, v/v)), and protein was precipitated by the addition of 150 μL acetonitrile containing the internal standards (5 ng/mL alprenolol and diclofenac). After centrifugation at 5,250 rpm and 4°C for 5 min, the supernatant (150 μL) was transferred to a polypropylene 96-well plate (Corning; Corning, NY, USA) and completely evaporated under a gentle stream of N2. The residue was reconstituted in dilution solution (mobile phase A/B (7:3, v/v)), and the supernatant was analyzed by LC-MS/MS.
Each sample (50 μL) was mixed with the working solution (the mixture of dimethyl sulfoxide and acetonitrile (2:8, v/v)), and the protein was precipitated by adding 150 μL acetonitrile containing internal standards (5 ng/mL alprenolol and diclofenac). After centrifugation at 5250 rpm and 4°C for 5 min, the supernatant (150 μL) was transferred to a polypropylene 96-well plate (Corning) and completely evaporated under a gentle stream of N2. The residue was reconstituted in mobile phase A/B (7:3, v/v)), and the supernatant was analyzed by LC-MS/MS. API5000 and QTRAP5500 (AB SCIEX, Framingham, MA, USA) equipped with Ultra-Fast Liquid Chromatography (Shimadzu, Kyoto, Japan) were used for determination of drug concentrations. Reversed-phase chromatography was performed using Shim-pack XR ODS (2.2 μm, 2.0×30 mm). Mobile phase A consisted of 10 mM ammonium formate with 0.2% formic acid, and mobile phase B contained acetonitrile with 0.2% formic acid. […] The mass spectrometer was operated in the positive ionization mode with multiple reaction monitoring (MRM). The MRM parameters (Q1 ion, Q3 ion, DP, EP, CE, and CXP) for monitoring the compounds are shown in Supplemental Table 4. Data acquisition and processing were performed using Analyst 1.6.2 (AB SCIEX, Framingham, MA, USA).
(§1) To perform correlation analyses between the observed Kp,uu,brain and Kp,uu,CSF, and the model-based prediction of Kp,uu,brain and Kp,uu,CSF, data from literature information were integrated into the internally obtained data for these assessments (Supplemental Table 2) ([17],[22]–[24],[27]–[33]). When only the total concentrations in plasma, CSF, and brain were available, the total concentration ratio in plasma to CSF or brain (Kp,CSF or Kp,brain, respectively) was estimated, followed by calculation of Kp,uu,CSF or Kp,uu,brain based on Eqs.

[2] = cited from earlier work
in vivo = settings: for Kp uu: rat, in vivo
Method: The CSF samples collected from cisterna magna in rats were stored at –80°C until analysis by liquid chromatography-tandem mass spectrometry (LC-MS/MS). Before performing the LC-MS/MS analysis, these samples were thawed on ice and mixed with three volumes of acetonitrile. The acetonitrile mixtures were vortexed and centrifuged, and the supernatant was collected. After dilution with mobile phase A (a mixture of 10 mM ammonium formate and formic acid at 100:0.2 (v/v)), the supernatant was injected into the LC-MS/MS system.
as §1

[3] = cited from earlier work; remark: listed apart in the source
MDR1 = MDR1 (Homo sapiens, UniProt P08183); assay: in vitro; settings: dog, MDCK-MDR1, pH 7.4
MDR1, sequence (P08183 whole entry): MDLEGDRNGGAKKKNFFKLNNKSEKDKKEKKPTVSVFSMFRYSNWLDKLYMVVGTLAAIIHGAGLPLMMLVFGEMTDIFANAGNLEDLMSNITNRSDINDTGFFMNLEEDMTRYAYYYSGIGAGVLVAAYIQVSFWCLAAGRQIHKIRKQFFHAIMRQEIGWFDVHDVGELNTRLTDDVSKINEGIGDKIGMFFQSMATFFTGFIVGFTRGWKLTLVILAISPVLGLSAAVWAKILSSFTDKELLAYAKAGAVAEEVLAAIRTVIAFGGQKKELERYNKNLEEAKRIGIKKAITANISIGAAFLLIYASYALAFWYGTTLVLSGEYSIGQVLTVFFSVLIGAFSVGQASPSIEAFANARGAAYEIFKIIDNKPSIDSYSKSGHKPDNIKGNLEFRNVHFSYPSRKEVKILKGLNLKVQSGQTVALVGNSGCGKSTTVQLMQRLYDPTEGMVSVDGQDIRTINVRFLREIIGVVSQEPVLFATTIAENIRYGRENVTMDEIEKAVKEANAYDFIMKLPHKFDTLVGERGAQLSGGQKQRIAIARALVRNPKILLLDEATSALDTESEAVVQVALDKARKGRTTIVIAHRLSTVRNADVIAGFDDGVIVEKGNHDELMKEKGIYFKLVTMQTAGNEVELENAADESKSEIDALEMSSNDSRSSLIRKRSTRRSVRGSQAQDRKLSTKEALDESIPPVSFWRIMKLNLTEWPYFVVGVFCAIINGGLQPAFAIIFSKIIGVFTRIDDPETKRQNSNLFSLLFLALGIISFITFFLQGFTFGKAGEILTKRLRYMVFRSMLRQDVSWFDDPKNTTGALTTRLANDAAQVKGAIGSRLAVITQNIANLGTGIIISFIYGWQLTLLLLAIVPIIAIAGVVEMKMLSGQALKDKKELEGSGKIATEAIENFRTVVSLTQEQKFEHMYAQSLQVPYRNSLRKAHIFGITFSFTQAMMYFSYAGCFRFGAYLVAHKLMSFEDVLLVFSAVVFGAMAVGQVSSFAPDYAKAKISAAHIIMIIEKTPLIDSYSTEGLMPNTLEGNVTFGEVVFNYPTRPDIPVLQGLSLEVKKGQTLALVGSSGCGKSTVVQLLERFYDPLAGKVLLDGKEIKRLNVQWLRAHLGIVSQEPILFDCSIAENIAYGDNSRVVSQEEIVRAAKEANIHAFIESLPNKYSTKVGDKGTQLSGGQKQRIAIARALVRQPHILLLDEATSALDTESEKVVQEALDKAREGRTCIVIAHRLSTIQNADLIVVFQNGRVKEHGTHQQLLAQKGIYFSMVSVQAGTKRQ
Method: (§2) To the compounds available internally, in vitro efflux ratios for MDR1 and BCRP were determined by the following procedure (Supplemental Table 2). Test compound stock solutions in dimethyl sulfoxide (DMSO) were diluted in transport buffer (Hanks’ balanced salt solution (HBSS) with 10 mM HEPES, pH 7.4) to a concentration of 1 μM (DMSO < 1%) and applied to the apical or basolateral side of a cell monolayer derived from Madin-Darby canine kidney (MDCK)-MDR1 and MDCK-BCRP cells. Permeation of the test compounds from apical to basolateral (A to B) direction or B to A direction was measured in duplicate. The plate was incubated for 1 h in a CO2 incubator at 37±1°C with 5% CO2 at saturated humidity without shaking. In addition, the efflux ratio of each compound was also determined. Test and reference compounds were quantified by LC-MS/MS analysis based on the peak area ratio of analyte/internal standard.
(§3) The apparent permeability coefficient Papp (cm/s) was calculated by using Eq. 1: 1 Papp=dCr/dt×Vr/A×C0 where dCr/dt is the cumulative concentration of the compound in the receiver chamber as a function of time (μM/s); Vr is the volume of the solution in the receiver chamber (0.075 mL on the apical side, 0.25 mL on the basolateral side); A is the surface area for transport, i.e., 0.0804 cm^2 for the area of the monolayer; and C0 is the initial concentration (μM) in the donor chamber.
(§4) The efflux ratio was calculated using Eq. 2: 2 Efflux ratio=Papp,BtoA/Papp,AtoB

BCRP = biological target: T1, BCRP (Homo sapiens, UniProt Q9UNQ0); assay: Transcellular transport across MDCK-BCRP cell monolayers (efflux ratio); settings: dog, pH 7.4
T1 sequence (Q9UNQ0 1-655): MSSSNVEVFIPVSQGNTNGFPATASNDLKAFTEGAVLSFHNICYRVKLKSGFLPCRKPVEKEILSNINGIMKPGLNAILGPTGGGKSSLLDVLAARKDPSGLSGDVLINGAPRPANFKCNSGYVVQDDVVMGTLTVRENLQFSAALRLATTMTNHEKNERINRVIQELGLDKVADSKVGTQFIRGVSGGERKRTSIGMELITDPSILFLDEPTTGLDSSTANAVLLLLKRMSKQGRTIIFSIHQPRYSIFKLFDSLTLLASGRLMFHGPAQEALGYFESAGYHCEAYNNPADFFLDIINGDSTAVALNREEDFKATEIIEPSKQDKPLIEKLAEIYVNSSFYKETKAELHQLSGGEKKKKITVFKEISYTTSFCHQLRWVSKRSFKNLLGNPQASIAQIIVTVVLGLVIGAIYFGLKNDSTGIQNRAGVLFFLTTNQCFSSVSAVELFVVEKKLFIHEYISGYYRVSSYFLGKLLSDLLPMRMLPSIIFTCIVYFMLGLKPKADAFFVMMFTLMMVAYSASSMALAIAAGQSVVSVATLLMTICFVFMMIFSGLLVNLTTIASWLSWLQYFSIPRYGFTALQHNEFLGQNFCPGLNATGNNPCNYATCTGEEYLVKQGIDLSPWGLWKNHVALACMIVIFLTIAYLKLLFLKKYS
Method: as §2, §3, §4

[4] = cited from earlier work; remark: listed apart in the source
[5] = monkey, *9 ref Nagaya et al. (19)

SMILES | efflux ratio at 1 h, 1 μM (MDR1) | efflux ratio at 1 h, 1 μM (BCRP) | Kp,uu,CSF Human ([3]; *4 ref Friden et al. (21)) | Kp,uu,CSF Rat ([2]; *4 ref Friden et al. (21)) | Kp uu (in vivo; Kp,uu,CSF Rat) | Kp uu (in vivo; Kp,uu,brain Rat) | further results
O=c1c(-c2ccc(O)cc2)coc2cc(O)cc(O)c12 [Genistein] |  |  |  |  |  |  | Kp,uu,CSF Monkey ([1]; monkey, lumbar CSF, *1 data internally obtained): 0.0369; Kp,uu,brain Monkey ([1]; monkey, *1 data internally obtained): 0.0128; Kp,uu,CSF Rat ([2]; *7 ref Kodaira et al. (20)): 0.589; Kp,uu,brain Rat ([2]; *7 ref Kodaira et al. (20)): 0.181; Kp,uu,CSF Rat (in vivo; *1 data internally obtained): 1.29; Kp,uu,brain Rat (in vivo; *1 data internally obtained): 0.0238
COc1ccc(C(CN(C)C)C2(O)CCCCC2)cc1 (stereo not drawn) [Venlafaxine] | 7.6 | 0.7 |  |  |  |  | Kp,uu,brain Human ([3]; *3 ref Summerfield et al. (25)): 0.86; Kp,uu,brain Rat ([2]; *3 ref Summerfield et al. (25)): 1.074
CC(C)NCC(O)COc1cccc2ccccc12 (stereo not drawn) [Propranolol] |  | 1 | 0.42 | 0.49 |  |  | Kp,uu,CSF Monkey [4, 5]: 0.461; Kp,uu,brain Monkey [4, 5]: 0.947
C=C[C@H]1C[N@@]2CC[C@H]1C[C@@H]2[C@@H](O)c1ccnc2ccc(OC)cc12 [Quinidine] |  | 0.9 |  |  | 0.419 | 0.0359 | Kp,uu,brain Monkey ([4]; monkey, *8 ref Uchida et al. (31)): 0.0744; Kp,uu,CSF Monkey [4, 5]: 0.169; Kp,uu,brain Monkey [4, 5]: 0.0658; Kp,uu,CSF Rat ([2]; *7 ref Kodaira et al. (20)): 0.0911; Kp,uu,brain Rat ([2]; *7 ref Kodaira et al. (20)): 0.026
CN(Cc1cnc2nc(N)nc(N)c2n1)c1ccc(C(=O)N[C@@H](CCC(=O)O)C(=O)O)cc1 [Methotrexate] | 1.4 | 1.2 | 0.062 | 0.007 |  |  | 
CC(C)NCC(O)COc1cccc2[nH]ccc12 (stereo not drawn) [Pindolol] | 5.7 | 1.2 | 0.52 | 0.11 |  |  | Kp,uu,brain Rat ([2]; *4 ref Friden et al. (21)): 0.500
Cc1cc(=O)n(-c2ccccc2)n1C [Antipyrine] | 0.9 | 1 |  |  | 0.944 | 0.857 | Kp,uu,CSF Monkey ([4]; cynomolgus monkey, in vivo): 1.05; Kp,uu,brain Monkey ([4]; cynomolgus monkey, in vivo): 0.857
C#Cc1cccc(Nc2ncnc3cc(OCCOC)c(OCCOC)cc23)c1 [Erlotinib] | 19.8 | 5.8 |  |  | 0.409 | 0.061 | Kp,uu,CSF Human ([3]; *2 ref Post et al. (24)): 0.428
Nc1ccc(S(=O)(=O)c2ccc(N)cc2)cc1 [Dapsone] | 1.3 | 0.8 |  |  |  |  | Kp uu at 6 h ([1]; Kp,uu,CSF Monkey): 0.661; Kp uu at 6 h ([1]; Kp,uu,brain Monkey): 1.02; Kp,uu,CSF Human ([3]; *11 ref Togashi et al. (29)): 1.56
